≈ marks a conversion by molar mass, not a printed value. Like-named read-outs stand apart in the source and are kept apart here. *1 amine or outer side, *2 acyl side, *3 side chain or, on linkers, in order; H or OH if unused. Where a SMILES comes first, the peptide text is derived from it. Bridges are numbered along the chain shown (N, C = ends). Where no end group is shown, it is not given here. [ ]: non-standard residue; d: D form. X1 = O=C([C@H](CCCCNCC=[*:3])N[*:1])[*:2]; Octanediyl(1,8) = C(CCCC[*:2])CCC[*:1]; X2 = C(CCCCC[*:2])CCCC[*:1]
Columns and labels:
[1] = Serum stability assay (residual antimicrobial activity against E. coli); type: in vitro ADME, bovine
Procedure: The serum stability assay was conducted as described by Li et al. ([2020]) with minor modifications. In brief, each peptide was dissolved in PBS solution containing 25% foetal bovine serum (FBS) at a final concentration of 2048 μg/mL and diluted after incubation for 8 h. E. coli was used as the bacterium for the stability assay, and the bacterial inhibition experiment was performed according to the bacterial inhibitory activity assay. Residual activity was calculated using the following formula: Residual activity=MICbefore/MICafter
• where MICbefore represents the MICs against E. coli before incubation, and MICafter represents the MICs against E. coli after incubation for 8 h.

[2] = system: Staphylococcus aureus (S. aureus, ATCC6538P); type: cell-based; details: ATCC6538
Procedure: (§1) Escherichia coli ( E. coli , ATCC25922), Klebsiella pneumoniae ( K. pneumoniae , ATCC10031), Staphylococcus aureus ( S. aureus , ATCC6538P), Pseudomonas aeruginosa ( P. aeruginosa , ATCC27853) and methicillin‐resistant Staphylococcus aureus (MRSA) were used to evaluate the antimicrobial activity of the peptides and were purchased from BeNa Culture Collection.
(§2) The MICs of the peptides in vitro were determined using the broth microdilution method with minor modifications (Wiegand et al. [2008]). Peptides were incubated with bacteria (about 5 × 10^5 CFU/mL), and PBS was used as the negative control. After 18–24 h of incubation at 37°C, the bacteria were checked for growth by recording the values at OD600, with three replicates in each group.

[3] = system: Pseudomonas aeruginosa (P. aeruginosa, ATCC27853); type: cell-based
Procedure: as §1, §2

[4] = system: Klebsiella pneumoniae (K. pneumoniae, ATCC10031); type: cell-based; details: for MIC K. pneumoniae: ATCC10031
Procedure: as §1, §2

[5] = system: Escherichia coli (E. coli, ATCC25922); type: cell-based
Procedure: as §1, §2

any bacteria = experiment: Wet experiment result (antimicrobial activity of the synthesised peptides, positive/negative); type: cell-based; details: experiment data set (Supplement S12)
Text: Supplement MBT2-18-e70121-s002.doc, table 9 | column: Wet Exp. Result

[6] = system: methicillin‐resistant Staphylococcus aureus (MRSA); type: cell-based
Procedure: as §1, §2

[7] = stapled peptide compared to its linear peptide

Row | Compound | residual antimicrobial activity after incubation in 25% serum (in words) [1] | MIC S. aureus [2] | MIC P. aeruginosa [3] | MIC K. pneumoniae [4] | MIC E. coli [5] | Wet Exp. Result (any bacteria) | decrease of residual antimicrobial activity after incubation in 25% serum [1] | residual antimicrobial activity after incubation in 25% serum (in words) ([1]; 25% foetal bovine serum, 8 h, MIC against E. coli, Figure 7L) | MIC MRSA ([6]; methicillin‐resistant) | increase of antibacterial activity against MRSA [6, 7] | increase of antimicrobial activity against K. pneumoniae [4, 7]
1 | CC[C@H](C)[C@H](NC(=O)CN)C(=O)NCC(=O)N[C@@H](CCCCN)C(=O)N[C@@H](Cc1ccccc1)C(=O)N[C@@H](CC(C)C)C(=O)N[C@@H](Cc1c[nH]cn1)C(=O)N[C@@H](CO)C(=O)N[C@@H](C)C(=O)N[C@@H](CCCCN)C(=O)N[C@@H](CCCCN)C(=O)N[C@@H](Cc1ccccc1)C(=O)NCC(=O)N[C@@H](CCCCN)C(=O)N[C@@H](C)C(=O)N[C@@H](Cc1ccccc1)C(=O)N[C@H](C(=O)N[C@H]1CSSC[C@@H](C(=O)N[C@@H](CO)C(=O)O)NC(=O)[C@H](CC(C)C)NC(=O)[C@H]([C@@H](C)CC)NC(=O)[C@H](CCC(=O)O)NC1=O)C(C)C [Mag2(i + 4)17Dc] (H-GIGKFLHSAKKFGKAFVCEILCS-OH; disulfide 18-22) | significantly decreased | 8 µg/mL | 64 µg/mL | 16 µg/mL | 16 µg/mL |  |  |  |  |  | 
2 | CC[C@H](C)[C@H](NC(=O)[C@H](CCC(=O)O)NC(=O)CNC(=O)[C@@H](NC(=O)[C@H](Cc1ccccc1)NC(=O)[C@H](C)NC(=O)[C@H](CCCCN)NC(=O)CNC(=O)[C@H](Cc1ccccc1)NC(=O)[C@H](CCCCN)NC(=O)[C@H](CCCCN)NC(=O)[C@H](C)NC(=O)[C@H](CO)NC(=O)[C@H](Cc1c[nH]cn1)NC(=O)[C@H](CC(C)C)NC(=O)[C@@H]1CSCCCCCCCCSC[C@H](N)C(=O)N[C@@H]([C@@H](C)CC)C(=O)NCC(=O)N[C@@H](CCCCN)C(=O)N1)C(C)C)C(=O)N[C@@H](CC(C)C)C(=O)N[C@@H](CC(N)=O)C(=O)N[C@@H](CO)C(=O)O [Mag(i + 4)0St] (H-CIGKCLHSAKKFGKAFVGEILNS-OH; linker 1-5 via Octanediyl(1,8); N-terminus and C-terminus assumed) |  | 32 µg/mL | 32 µg/mL | 16 µg/mL | 4 µg/mL | Positive | approximately 50% |  |  |  | 
3 | GIGKFLHSAKKFGKAFVGEIMNS [Mag2, magainin II, reference compound] |  |  |  |  |  |  |  | significantly decreased |  |  | 
4 | CC[C@H](C)[C@H](NC(=O)CN)C(=O)NCC(=O)N[C@@H](CCCCN)C(=O)N[C@@H](Cc1ccccc1)C(=O)N[C@@H](CC(C)C)C(=O)N[C@@H](Cc1c[nH]cn1)C(=O)N[C@@H](CO)C(=O)N[C@@H](C)C(=O)N[C@@H](CCCCN)C(=O)N[C@@H](CCCCN)C(=O)N[C@H]1CSCCCCCCCCCCSC[C@@H](C(=O)N[C@H](C(=O)N[C@@H](CC(C)C)C(=O)N[C@@H](CC(N)=O)C(=O)N[C@@H](CO)C(=O)O)[C@@H](C)CC)NC(=O)CNC(=O)[C@H](C(C)C)NC(=O)[C@H](Cc2ccccc2)NC(=O)[C@H](C)NC(=O)[C@H](CCCCN)NC(=O)CNC1=O [Mag(i + 7)11St] (H-GIGKFLHSAKKCGKAFVGCILNS-OH; linker 12-19 via X2) | remained unchanged | 2 µg/mL | 32 µg/mL | 8 µg/mL | 16 µg/mL | Positive |  |  |  |  | 
5 | CC[C@H](C)[C@H](NC(=O)[C@@H](N)CCCNC(=N)N)C(=O)N[C@@H](CC(C)C)C(=O)N[C@@H](CCCNC(=N)N)C(=O)N[C@@H](CCCCN)C(=O)N[C@@H](CC(C)C)C(=O)N[C@@H](CCCNC(=N)N)C(=O)N[C@H]1CCCCNC/C=C/CNCCCC[C@@H](C(=O)O)NC(=O)[C@H](CC(C)C)NC(=O)[C@H](Cc2ccccc2)NC(=O)[C@H](CCCNC(=N)N)NC1=O [GAN‐P2‐4‐St] (H-RILRKLR[X1]RFL[X1]-OH; staple (E) 8-12) |  | 4 µg/mL (≈ 2.38 µM) | 16 µg/mL (≈ 9.53 µM) | 2 µg/mL (≈ 1.19 µM) | 16 µg/mL (≈ 9.53 µM) | Positive |  |  | 16 µg/mL (≈ 9.53 µM) | 4 fold | 2–4 fold
